# Reference: patent US20260285888A1, “HETEROCYCLIC COMPOUND AND USE THEREOF” (OTSUKA PHARMACEUTICAL CO., LTD., priority 2023, published 2026)
# Key:
# [1] = Study for confirmation of conversion to brexpiprazole in a buffer (stability of the evaluation compounds); format: physicochemical; details: in buffer, average of duplicate; for Concentration of brexpiprazole formed: 60-minute reaction sample; for Concentration of evaluation compound decreased: decrease in 60-minute vs 0-minute reaction sample
# How it was run: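 Compounds (final 1 μmol/L, from 100 μmol/L working solutions) incubated in buffer at 37° C. for 0 or 60 min, in duplicate, after 3 min pre-incubation of the reaction solution. Reactions stopped with acetonitrile/isopropanol (4:1) containing internal standards; compound and formed brexpiprazole quantified against 0.01–1 μmol/L calibration samples.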
# [2] = in vitro; format: cell-based, human; details: human, differentiated hl-60 cells, 300 μmol/L, about 24 hours, PMA-differentiated HL-60 cells, LDH; no-treatment 0%, cell lysis buffer 100%; read-out: cytotoxicity (%) Evaluation compound results
# How it was run: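 HL-60 cells differentiated ~72 h with 10 nM PMA, then exposed ~24 h to compound at 300 μmol/L final in RPMI with 2% FBS. LDH release in supernatant gave cytotoxicity % scaled between untreated (0%) and lysis-buffer (100%) groups; triplicate.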
Structure (SMILES),Concentration of brexpiprazole formed [1] [nM],Concentration of evaluation compound decreased [1] [nM],"cytotoxicity at 24 h, 300 µM [2] [%]"
"CCOC(=O)OCOP(=O)([O-])OC[N+]1(CCCCOc2ccc3ccc(=O)[nH]c3c2)CCN(c2cccc3sccc23)CC1 [EX 129, (4-(benzo[b]thiophen-4-yl)-1-(4-(((2-oxo-1,2-dihydroquinolin-7-yl)oxy)butyl)piperazin-1-ium-1-yl)methyl (((ethoxycarbonyl)oxy)methyl) phosphate]",0,90,-4
"CC(C)OC(=O)OCOP(=O)([O-])OC[N+]1(CCCCOc2ccc3ccc(=O)[nH]c3c2)CCN(c2cccc3sccc23)CC1 [EX 130, (4-(benzo[b]thiophen-4-yl)-1-(4-((2-oxo-1,2-dihydroquinolin-7-yl)oxy)butyl)piperazin-1-ium-1-yl)methyl (isopropoxycarbonyl)oxy)methyl) phosphate]",0,-20,1
"CCOCCOC(=O)OCOP(=O)([O-])OC[N+]1(CCCCOc2ccc3ccc(=O)[nH]c3c2)CCN(c2cccc3sccc23)CC1 [EX 132, (4-(benzo[b]thiophen-4-yl)-1-(4-((2-oxo-1,2-dihydroquinolin-7-yl)oxy)butyl)piperazin-1-ium-1-yl)methyl ((((2-ethoxyethoxy)carbonyl)oxy)methyl) phosphate]",0,130,-7
"CC(C)OCCOC(=O)OCOP(=O)([O-])OC[N+]1(CCCCOc2ccc3ccc(=O)[nH]c3c2)CCN(c2cccc3sccc23)CC1 [EX 133, (4-(benzo[b]thiophen-4-yl)-1-(4-((2-oxo-1,2-dihydroquinolin-7-yl)oxy)butyl)piperazin-1-ium-1-yl)methyl ((((2-isopropoxyethyloxy)carbonyl)oxy)methyl) phosphate]",0,140,-5
"CCOCCOCCOC(=O)OCOP(=O)([O-])OC[N+]1(CCCCOc2ccc3ccc(=O)[nH]c3c2)CCN(c2cccc3sccc23)CC1 [EX 134, (4-(benzo[b]thiophen-4-yl)-1-(4-((2-oxo-1,2-dihydroquinolin-7-yl)oxy)butyl)piperazin-1-ium-1-yl)methyl (3-oxo-2,4,7,10-tetraoxadodecyl) phosphate]",0,70,-7
"CCCCOCCOCCOC(=O)OCOP(=O)([O-])OC[N+]1(CCCCOc2ccc3ccc(=O)[nH]c3c2)CCN(c2cccc3sccc23)CC1 [EX 135, (4-(benzo[b]thiophen-4-yl)-1-(4-((2-oxo-1.2-dihydroquinolin-7-yl)oxy)butyl)piperazin-1-ium-1-yl)methyl (3-oxo-2,4,7,10-tetraoxatetradecyl) phosphate]",0,70,-4
"CCOCCOCCOCCOC(=O)OCOP(=O)([O-])OC[N+]1(CCCCOc2ccc3ccc(=O)[nH]c3c2)CCN(c2cccc3sccc23)CC1 [EX 136, (4-(benzo[b]thiophen-4-yl)-1-(4-((2-oxo-1,2-dihydroquinolin-7-yl)oxy)butyl)piperazin-1-ium-1-yl)methyl (3-oxo-2,4,7,10,13-pentaoxapentadecyl) phosphate]",0,0,-9
"CC(C)OCCOCCOCCOC(=O)OCOP(=O)([O-])OC[N+]1(CCCCOc2ccc3ccc(=O)[nH]c3c2)CCN(c2cccc3sccc23)CC1 [EX 137, (4-(benzo[b]thiophen-4-yl)-1-(4-((2-oxo-1,2-dihydroquinolin-7-yl)oxy)butyl)piperazin-1-ium-1-yl)methyl (14-methyl-3-oxo-2,4,7,10,13-pentaoxapentadecyl) phosphate]",0,90,-8
"CCCCOCCOCCOCCOC(=O)OCOP(=O)([O-])OC[N+]1(CCCCOc2ccc3ccc(=O)[nH]c3c2)CCN(c2cccc3sccc23)CC1 [EX 138, (4-(benzo[b]thiophen-4-yl)-1-(4-((2-oxo-1,2-dihydroquinolin-7-yl)oxy)butyl)piperazin-1-ium-1-yl)methyl (3-oxo-2,4,7,10,13-pentaoxaheptadecyl) phosphate]",0,90,-7
"COCCCOC(=O)OCOP(=O)([O-])OC[N+]1(CCCCOc2ccc3ccc(=O)[nH]c3c2)CCN(c2cccc3sccc23)CC1 [EX 139, (4-(benzo[b]thiophen-4-yl)-1-(4-((2-oxo-1,2-dihydroquinolin-7-yl)oxy)butyl)piperazin-1-ium-1-yl)methyl ((((3-methoxypropoxy)carbonyl)oxy)methyl) phosphate]",0,120,-4
"O=C(OCCCOC1CCCCO1)OCOP(=O)([O-])OC[N+]1(CCCCOc2ccc3ccc(=O)[nH]c3c2)CCN(c2cccc3sccc23)CC1 (stereo not drawn) [EX 140, (4-(benzo[b]thiophen-4-yl)-1-(4-((2-oxo-1,2-dihydroquinolin-7-yl)oxy)butyl)piperazin-1-ium-1-yl)methyl ((((3-((tetrahydro-2H-pyran-2-yl)oxy)propoxy)carbonyl)oxy)methyl) phosphate]",0,-20,9
"O=C(OCOP(=O)([O-])OC[N+]1(CCCCOc2ccc3ccc(=O)[nH]c3c2)CCN(c2cccc3sccc23)CC1)OC1CCOCC1 [EX 141, (4-(benzo[b]thiophen-4-yl)-1-(4-((2-oxo-1,2-dihydroquinolin-7-yl)oxy)butyl)piperazin-1-ium-1-yl)methyl (((((tetrahydro-2H-pyran-4-yl)oxy)carbonyl)oxy)methyl) phosphate]",0,20,19
"O=C(OCOP(=O)([O-])OC[N+]1(CCCCOc2ccc3ccc(=O)[nH]c3c2)CCN(c2cccc3sccc23)CC1)OCC1CCOCC1 [EX 142, (4-(benzo[b]thiophen-4-yl)-1-(4-((2-oxo-1,2-dihydroquinolin-7-yl)oxy)butyl)piperazin-1-ium-1-yl)methyl (((((tetrahydro-2H-pyran-4-yl)methoxy)carbonyl)oxy)methyl) phosphate]",0,-70,8
"CCOC(=O)CCOC(=O)OCOP(=O)([O-])OC[N+]1(CCCCOc2ccc3ccc(=O)[nH]c3c2)CCN(c2cccc3sccc23)CC1 [EX 143, (4-(benzo[b]thiophen-4-yl)-1-(4-((2-oxo-1,2-dihydroquinolin-7-yl)oxy)butyl)piperazin-1-ium-1-yl)methyl ((((3-ethoxy-3-oxopropoxy)carbonyl)oxy)methyl) phosphate]",0,50,-5
CCOC(=O)CCCCCOC(=O)OCOP(=O)([O-])OC[N+]1(CCCCOc2ccc3ccc(=O)[nH]c3c2)CCN(c2cccc3sccc23)CC1 [EX 144],0,120,18
"O=C(O)CCCCCOC(=O)OCOP(=O)([O-])OC[N+]1(CCCCOc2ccc3ccc(=O)[nH]c3c2)CCN(c2cccc3sccc23)CC1 [EX 145, (4-(benzo[b]thiophen-4-yl)-1-(4-((2-oxo-1,2-dihydroquinolin-7-yl)oxy)butyl)piperazin-1-ium-1-yl)methyl (((((5-carboxypentyl)oxy)carbonyl)oxy)methyl) phosphate]",0,30,-9
"O=C(OCCCN1CCOCC1)OCOP(=O)([O-])OC[N+]1(CCCCOc2ccc3ccc(=O)[nH]c3c2)CCN(c2cccc3sccc23)CC1 [EX 146, (4-(Benzo[b]thiophen-4-yl)-1-(4-((2-oxo-1,2-dihydroquinolin-7-yl)oxy)butyl)piperazin-1-ium-1-yl)methyl ((((3-morpholinopropoxy)carbonyl)oxy)methyl) phosphate]",0,110,1
"CCOC(=O)C1CCN(CCOP(=O)([O-])OC[N+]2(CCCCOc3ccc4ccc(=O)[nH]c4c3)CCN(c3cccc4sccc34)CC2)CC1 [EX 147, (4-(benzo[b]thiophen-4-yl)-1-(4-((2-oxo-1,2-dihydroquinolin-7-yl)oxy)butyl)piperazin-1-ium-1-yl)methyl (2-(4-(ethoxycarbonyl)piperidin-1-yl)ethyl) phosphate]",0,70,-6
